Results on 25 molecules are retold here after US20230066011A1, “PYRROLOPYRIMIDINE DERIVATIVE, AND PHARMACEUTICAL COMPOSITION FOR PREVENTING OR TREATING PROTEIN KINASE-RELATED DISEASE COMPRISING SAME AS ACTIVE INGREDIENT” (VORONOI CO., LTD., priority 2019, published 2023).

Structures are written as SMILES.

In one assay the target is T1, human GST-CLK1 (Homo sapiens, UniProt P49759).
T1 construct: purified human GST-CLK1 (129-end, SignalChem) enzyme; purchased SignalChem
The assay is described as follows: GST-CLK1 enzyme inhibition, ADP-Glo kinase assay. The assay is classed as biochemical. The conditions noted are these: ATP 10 μM, GST-CLK1 129-end. In short, it runs like this:
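Human GST-CLK1 (129-end, 3 ng) reacted with substrate and 10 μM ATP for 1 h at 25° C in 40 mM Tris-HCl pH 7.4, 20 mM MgCl2, 0.5 mg/mL BSA, 50 μM DTT. ADP-Glo luminescence was normalised to solvent control; IC50 (nM) from 3 data sets.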

The next assay addresses LRRK2 (Homo sapiens, UniProt Q5S007). The assay is described as follows: LRRK2 enzyme inhibition, ADP-Glo kinase assay. It is filed as biochemical. Also on record: purchased Invitrogen PR8604B. The following applies: ATP 10 μM. In outline:
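Purified human LRRK2 (25 ng) with 10 μM ATP and 0.2 μg substrate in 40 mM Tris-HCl pH 7.4, 20 mM MgCl2, 0.5 mg/mL BSA, 50 μM DTT, 2 h at 25° C. ADP-Glo luminescence; 12-point compound series from 50 μM final; IC50 relative to solvent control.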
(ADP-Glo turns the ADP formed in a reaction into a luminescent signal.)

The IC50 is the midpoint of a concentration-inhibition curve. A lower IC50 goes with inhibition by little substance.

LRRK2, sequence (Q5S007 970-2527 limits assumed): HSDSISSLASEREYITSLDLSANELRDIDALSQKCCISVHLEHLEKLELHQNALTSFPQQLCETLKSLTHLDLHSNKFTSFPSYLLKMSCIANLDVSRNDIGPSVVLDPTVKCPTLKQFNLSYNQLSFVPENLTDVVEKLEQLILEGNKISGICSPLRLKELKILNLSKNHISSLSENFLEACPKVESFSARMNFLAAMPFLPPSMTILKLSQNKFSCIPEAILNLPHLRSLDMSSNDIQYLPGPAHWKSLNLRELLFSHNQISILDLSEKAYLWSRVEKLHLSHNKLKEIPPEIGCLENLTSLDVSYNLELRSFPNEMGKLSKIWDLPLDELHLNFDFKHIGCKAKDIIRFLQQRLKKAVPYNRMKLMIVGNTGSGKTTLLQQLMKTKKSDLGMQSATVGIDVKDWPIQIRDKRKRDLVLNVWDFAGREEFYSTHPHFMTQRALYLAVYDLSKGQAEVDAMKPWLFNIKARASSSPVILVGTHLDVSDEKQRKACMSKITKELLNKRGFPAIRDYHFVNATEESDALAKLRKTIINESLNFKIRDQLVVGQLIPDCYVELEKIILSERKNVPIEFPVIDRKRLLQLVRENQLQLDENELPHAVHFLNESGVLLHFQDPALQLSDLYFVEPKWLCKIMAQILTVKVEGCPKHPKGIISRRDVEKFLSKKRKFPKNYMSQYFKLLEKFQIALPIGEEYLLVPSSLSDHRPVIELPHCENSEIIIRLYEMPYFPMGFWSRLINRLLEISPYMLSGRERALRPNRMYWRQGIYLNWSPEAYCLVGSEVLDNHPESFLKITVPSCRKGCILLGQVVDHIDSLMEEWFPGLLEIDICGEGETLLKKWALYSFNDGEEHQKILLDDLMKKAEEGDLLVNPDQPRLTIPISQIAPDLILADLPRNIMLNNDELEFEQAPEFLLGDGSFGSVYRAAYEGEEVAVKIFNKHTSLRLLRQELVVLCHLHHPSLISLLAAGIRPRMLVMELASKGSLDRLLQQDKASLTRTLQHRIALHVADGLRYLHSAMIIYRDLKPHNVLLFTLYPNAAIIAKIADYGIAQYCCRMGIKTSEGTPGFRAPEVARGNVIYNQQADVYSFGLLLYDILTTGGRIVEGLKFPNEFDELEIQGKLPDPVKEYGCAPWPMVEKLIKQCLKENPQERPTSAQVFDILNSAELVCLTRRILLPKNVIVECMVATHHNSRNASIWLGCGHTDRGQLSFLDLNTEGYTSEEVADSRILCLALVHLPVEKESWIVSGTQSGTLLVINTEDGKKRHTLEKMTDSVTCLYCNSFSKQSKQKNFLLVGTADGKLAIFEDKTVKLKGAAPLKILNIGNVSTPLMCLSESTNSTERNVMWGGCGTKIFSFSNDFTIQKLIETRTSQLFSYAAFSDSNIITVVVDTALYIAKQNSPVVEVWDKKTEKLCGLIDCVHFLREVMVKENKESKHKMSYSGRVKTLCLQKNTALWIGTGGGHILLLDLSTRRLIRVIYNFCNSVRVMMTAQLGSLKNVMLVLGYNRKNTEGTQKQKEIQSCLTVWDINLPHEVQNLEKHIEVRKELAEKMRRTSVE
T1 sequence (P49759 129-484 limits assumed): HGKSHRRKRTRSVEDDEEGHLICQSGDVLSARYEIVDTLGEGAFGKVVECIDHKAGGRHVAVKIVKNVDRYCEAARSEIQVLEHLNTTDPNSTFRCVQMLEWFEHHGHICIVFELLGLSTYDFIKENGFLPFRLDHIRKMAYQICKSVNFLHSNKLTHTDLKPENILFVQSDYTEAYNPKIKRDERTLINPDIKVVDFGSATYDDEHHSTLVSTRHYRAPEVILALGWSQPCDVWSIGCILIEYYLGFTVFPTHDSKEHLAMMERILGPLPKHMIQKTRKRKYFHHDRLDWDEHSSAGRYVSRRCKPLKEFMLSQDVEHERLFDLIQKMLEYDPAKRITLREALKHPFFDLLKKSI

`N#Cc1c[nH]c2nc(Nc3ccc(C(=O)N4CCOCC4)c4c3OCCO4)nc(NCC3CCCC3)c12` [Example 133, 4-((cyclopentylmethyl)amino)-2-((8-(morpholine-4-carbonyl)-2,3-dihydrobenzo[b][1,4]dioxin-5-yl)amino)-7H-pyrrolo[2,3-d]pyrimidine-5-carbonitrile]: the 50% inhibitory concentration (IC50) on human GST-CLK1 was 301 to 1000 nM; on LRRK2 it was below 100 nM.

For the molecule `CCCNc1nc(Nc2ccc(C(=O)N3CCC(N4CCOCC4)CC3)c3c2OCCO3)nc2[nH]cc(C#N)c12` [Example 138, 2-((8-(4-morpholinopiperidine-1-carbonyl)-2,3-dihydrobenzo[b][1,4]dioxin-5-yl)amino)-4-(propylamino)-7H-pyrrolo[2,3-d]pyrimidine-5-carbonitrile], the concentration for half-maximal inhibition (IC50) on human GST-CLK1 and at LRRK2 was below 100 nM in each case.

`CNc1nc(Nc2ccc(S(=O)(=O)N3CCC(N4CCOCC4)CC3)cc2OC)nc2[nH]cc(C(F)(F)F)c12` [Example 157, N^2-(2-methoxy-4-((4-morpholinopiperidin-1-yl)sulfonyl)phenyl)-N^4-methyl-5-(trifluoromethyl)-7H-pyrrolo[2,3-d]pyrimidine-2,4-diamine 2,2,2-trifluoroacetate] showed a half-maximal inhibitory concentration (IC50) against human GST-CLK1 below 100 nM.

Turning to `CCNc1nc(Nc2ccc(S(=O)(=O)N3CCC(N4CCOCC4)CC3)cc2OC)nc2[nH]cc(C(F)(F)F)c12` [Example 158, N^4-ethyl-N^2-(2-methoxy-4-((4-morpholinopiperidin-1-yl)sulfonyl)phenyl)-5-(trifluoromethyl)-7H-pyrrolo[2,3-d]pyrimidine-2,4-diamine 2,2,2-trifluoroacetate], the IC50 on human GST-CLK1 and on LRRK2 was below 100 nM each time.

In the case of `CCCNc1nc(Nc2ccc(S(=O)(=O)N3CCC(N4CCOCC4)CC3)cc2OC)nc2[nH]cc(C(F)(F)F)c12` [Example 161, N^2-(2-methoxy-4-((4-morpholinopiperidin-1-yl)sulfonyl)phenyl)-N^4-propyl-5-(trifluoromethyl)-7H-pyrrolo[2,3-d]pyrimidine-2,4-diamine], the IC50 at LRRK2 is below 100 nM.

As for `CNc1nc(Nc2ccc(C(=O)N3CCC(N4CCOCC4)CC3)c3c2OCC3)nc2[nH]cc(C(F)(F)F)c12` [Example 217, (7-((4-(methylamino)-5-(trifluoromethyl)-7H-pyrrolo[2,3-d]pyrimidin-2-yl)amino)-2,3-dihydrobenzofuran-4-yl)(4-morpholinopiperidin-1-yl)methanone], the IC50 on human GST-CLK1 and at LRRK2 was below 100 nM in each case.

Consider `CNc1nc(Nc2ccc(S(=O)(=O)N3CCC(N4CCOCC4)CC3)c3c2OCCO3)nc2[nH]cc(C(F)(F)F)c12` [Example 219, N^4-methyl-N^2-(8-((4-morpholinopiperidin-1-yl)sulfonyl)-2,3-dihydrobenzo[b][1,4]dioxin-5-yl)-5-(trifluoromethyl)-7H-pyrrolo[2,3-d]pyrimidine-2,4-diamine], for which the IC50 at human GST-CLK1 and against LRRK2 was below 100 nM throughout.

Regarding `N#Cc1c[nH]c2nc(Nc3ccc(C(=O)N4CCC(N5CCOCC5)CC4)c4c3OCCO4)nc(C3CC3)c12` [Example 221, 4-cyclopropyl-2-((8-(4-morpholinopiperidine-1-carbonyl)-2,3-dihydrobenzo[b][1,4]dioxin-5-yl)amino)-7H-pyrrolo[2,3-d]pyrimidine-5-carbonitrile], the 50% inhibitory concentration (IC50) against human GST-CLK1 and against LRRK2 was below 100 nM in each case.

In the case of `COc1cc(S(=O)(=O)N2CCOCC2)ccc1Nc1nc(C2CC2)c2c(C#N)c[nH]c2n1` [Example 223, 4-cyclopropyl-2-((2-methoxy-4-(morpholinosulfonyl)phenyl)amino)-7H-pyrrolo[2,3-d]pyrimidine-5-carbonitrile], the IC50 against human GST-CLK1 fell in the range of 301 to 1000 nM; against LRRK2, 101 to 300 nM.

As for `COc1cc(S(=O)(=O)N2CCC(N3CCOCC3)CC2)ccc1Nc1nc(C2CC2)c2c(C#N)c[nH]c2n1` [Example 224, 4-cyclopropyl-2-((2-methoxy-4-((4-morpholinopiperidin-1-yl)sulfonyl)phenyl)amino)-7H-pyrrolo[2,3-d]pyrimidine-5-carbonitrile], the results for the IC50 on human GST-CLK1 and against LRRK2 were 101 to 300 nM and below 100 nM, respectively.

With `COc1cc(S(=O)(=O)N2CCC(N3CCOCC3)CC2)ccc1Nc1nc(C2CC2)c2c(C(F)(F)F)c[nH]c2n1` [Example 226], the IC50 is 301 to 1000 nM against human GST-CLK1 and 101 to 300 nM on LRRK2.

With `O=C(c1ccc(Nc2nc(C3CC3)c3c(C(F)(F)F)c[nH]c3n2)c2c1OCCO2)N1CCC(N2CCOCC2)CC1` [Example 228, (8-((4-cyclopropyl-5-(trifluoromethyl)-7H-pyrrolo[2,3-d]pyrimidin-2-yl)amino)-2,3-dihydrobenzo[b][1,4]dioxin-5-yl)(4-morpholinopiperidin-1-yl)methanone], the IC50 on human GST-CLK1 and against LRRK2 was below 100 nM in each case.

Take `CNc1nc(Nc2cc(F)c(S(=O)(=O)N3CCC(N4CCOCC4)CC3)cc2OC)nc2[nH]cc(C(F)(F)F)c12` [Example 231, N^2-(5-fluoro-2-methoxy-4-((4-morpholinopiperidin-1-yl)sulfonyl)phenyl)-N^4-methyl-5-(trifluoromethyl)-7H-pyrrolo[2,3-d]pyrimidine-2,4-diamine]: on human GST-CLK1, the IC50 was below 100 nM.

As to `CCNc1nc(Nc2cc(F)c(S(=O)(=O)N3CCC(N4CCOCC4)CC3)cc2OC)nc2[nH]cc(C(F)(F)F)c12` [Example 232, N^4-ethyl-N^2-(5-fluoro-2-methoxy-4-((4-morpholinopiperidin-1-yl)sulfonyl)phenyl)-5-(trifluoromethyl)-7H-pyrrolo[2,3-d]pyrimidine-2,4-diamine], at human GST-CLK1, the IC50 fell in the range of 101 to 300 nM.

On to `CNc1nc(Nc2ccc(C(=O)N3CC[C@H](N4CCOCC4)C3)c3c2OCC3)nc2[nH]cc(C(F)(F)F)c12` [Example 236, (S)-(7-((4-(methylamino)-5-(trifluoromethyl)-7H-pyrrolo[2,3-d]pyrimidin-2-yl)amino)-2,3-dihydrobenzofuran-4-yl)(3-morpholinopyrrolidin-1-yl)methanone], for which the concentration for half-maximal inhibition (IC50) at human GST-CLK1 and on LRRK2 was below 100 nM throughout.

With `CNc1nc(Nc2ccc(C(=O)N3CCC(N4CCOCC4)CC3)c3c2OCCO3)nc2[nH]cc(C(F)(F)F)c12` [Example 238, (8-((4-(methylamino)-5-(trifluoromethyl)-7H-pyrrolo[2,3-d]pyrimidin-2-yl)amino)-2,3-dihydrobenzo[b][1,4]dioxin-5-yl)(4-morpholinopiperidin-1-yl)methanone], the IC50 against human GST-CLK1 and at LRRK2 was below 100 nM each time.

With `CCN1CCP(=O)(c2ccc(Nc3nc(C4CC4)c4c(C#N)c[nH]c4n3)c(OC)c2)CC1` [Example 261], the 50% inhibitory concentration (IC50) on human GST-CLK1 and on LRRK2 was below 100 nM each time.

Regarding `CCNc1nc(Nc2ccc(C(=O)N3CCC(N4CCOCC4)CC3)c3c2OCC3)nc2[nH]cc(C#N)c12` [Example 347, 4-(ethylamino)-2-((4-(4-morpholino-piperidine-1-carbonyl)-2,3-dihydro-benzofuran-7-yl)amino)-7H-pyrrolo[2,3-d]pyrimidine-5-carbonitrile], the IC50 against human GST-CLK1 and against LRRK2 was below 100 nM each time.

In turn, `COCCNc1nc(Nc2ccc(C(=O)N3CCC(N4CCOCC4)CC3)c3c2OCC3)nc2[nH]cc(C#N)c12` [Example 359, 4-((2-methoxy-ethyl)ami-no)-2-((4-(4-morpholino-piperidine-1-carbonyl)-2,3-dihydro-benzofuran-7-yl)amino)-7H-pyrrolo[2,3-d]pyrimidine-5-carbonitrile] gave an IC50 against human GST-CLK1 below 100 nM.

Take `C=CCNc1nc(Nc2ccc(S(=O)(=O)N3CCC(N4CCOCC4)CC3)cc2OC)nc2[nH]cc(C#N)c12` [Example 361, 4-(allylamino)-2-((2-methoxy-4-((4-morpholino-piperidin-1-yl)sulfonyl)phenyl)amino)-7H-pyrrolo[2,3-d]pyrimidine-5-carbonitrile]: the IC50 at human GST-CLK1 and at LRRK2 was below 100 nM throughout.

With `CNc1nc(Nc2ccc(C(=O)N3CCN(C4COC4)CC3)c3c2OCCO3)nc2[nH]cc(C(F)(F)F)c12` [Example 397, (8-((4-(methylamino)-5-(trifluoromethyl)-7H-pyrrolo[2,3-d]pyrimidin-2-yl)amino)-2,3-dihydrobenzo[b] [1,4]dioxin-5-yl) (4-(oxetan-3-yl)piperazin-1-yl)methanone], the 50% inhibitory concentration (IC50) against human GST-CLK1 and at LRRK2 was below 100 nM in each case.

With `CCNc1nc(Nc2ccc(C(=O)N3CCN(C4COC4)CC3)c3c2OCCO3)nc2[nH]cc(C(F)(F)F)c12` [Example 400, (8-((4-(ethylamino)-5-(trifluoromethyl)-7H-pyrrolo[2,3-d]pyrimidin-2-yl)amino)-2,3-dihydrobenzo[b] [1,4]dioxin-5-yl) (4-(oxetan-3-yl)piperazin-1-yl)methanone], at human GST-CLK1, the IC50 was below 100 nM.

In the case of `COCCNc1nc(Nc2ccc(C(=O)N3CCN(C4COC4)CC3)c3c2OCCO3)nc2[nH]cc(C(F)(F)F)c12` [Example 403, (8-((4-((2-methoxyethyl)-amino)-5-(trifluoromethyl)-7H-pyrrolo[2,3-d]pyrimidin-2-yl)amino)-2,3-dihydrobenzo[b] [1,4]dioxin-5-yl) (4-(oxetan-3-yl)piperazin-1-yl)methanone], the IC50 against human GST-CLK1 and against LRRK2 was below 100 nM throughout.

As for `COc1cc(P2(=O)CCN(C3CC3)CC2)ccc1Nc1nc(NC2CCCC2)c2c(C(F)(F)F)c[nH]c2n1` [Example 413], on human GST-CLK1, the 50% inhibitory concentration (IC50) fell in the range of 301 to 1000 nM.

For `O=C(c1ccc(Nc2nc(NC3CCCCC3)c3c(C(F)(F)F)c[nH]c3n2)c2c1OCCO2)N1CCN(C2COC2)CC1` [Example 415, (8-((4-(cyclo-hexylamino)-5-(trifluoromethyl)-7H-pyrrolo[2,3-d]pyrimidin-2-yl)amino)-2,3-dihydrobenzo[b] [1,4]dioxin-5-yl) (4-(oxetan-3-yl)piperazin-1-yl)methanone], the IC50 on human GST-CLK1 lay in the range of 301 to 1000 nM.
